Laboratory results published in ChEMBL document CHEMBL5357001, “Coriaceumins A-D, the First Nitrogen-Containing Crenulide Diterpenoids from the Brown Alga Dictyota coriacea Collected in the East China Sea” (J Nat Prod, 2024).
Active and inactive are the calls of the source. The rule behind the calls is not given here.

Columns and labels:
HL-60 = test: Cytotoxicity against human HL-60 cells assessed as reduction in cell viability at 20 uM incubated for 3 days by CCK-8 assay; format: functional, cell-based; conditions: time 3.0 day
A549 = test: Cytotoxicity against human A549 cells assessed as reduction in cell viability at 20 uM incubated for 3 days by CCK-8 assay; format: functional, cell-based; conditions: time 3.0 day
[1] = target: T1, Tyrosine-protein phosphatase non-receptor type 1 (Homo sapiens) (UniProt P18031); test: Inhibition of recombinant PTP1B (unknown origin) using pNPP as substrate at 20 uM relative to control
T1 sequence (whole entry): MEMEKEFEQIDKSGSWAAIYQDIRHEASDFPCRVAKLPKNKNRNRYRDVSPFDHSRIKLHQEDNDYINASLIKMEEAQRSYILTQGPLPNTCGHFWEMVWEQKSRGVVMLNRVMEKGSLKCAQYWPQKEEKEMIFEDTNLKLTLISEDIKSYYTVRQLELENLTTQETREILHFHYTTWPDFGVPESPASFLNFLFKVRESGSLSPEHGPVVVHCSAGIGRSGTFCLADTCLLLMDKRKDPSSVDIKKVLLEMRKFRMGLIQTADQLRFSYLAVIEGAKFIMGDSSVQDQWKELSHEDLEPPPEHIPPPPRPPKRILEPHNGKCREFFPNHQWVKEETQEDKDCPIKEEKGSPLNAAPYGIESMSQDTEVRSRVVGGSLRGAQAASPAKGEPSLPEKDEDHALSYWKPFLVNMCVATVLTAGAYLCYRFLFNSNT

[2] = target: T2, Tyrosine-protein phosphatase non-receptor type 1 (Homo sapiens, UniProt P18031); test: Inhibition of recombinant PTP1B (unknown origin) using pNPP as substrate relative to control
T2 sequence (P18031 whole entry): T1 sequence (whole entry)

`CCO[C@@H]1C/C=C(\C)CC[C@@H]([C@H](C)CCC=C(C)C)C2=C1C(=O)N[C@@H]2O` was tested, and the Activity (HL-60) was “inactive”, the Activity (A549) was “inactive” and the inhibition [1] was 38%.

For `C=C(C)C(=O)CC[C@@H](C)[C@H]1C2=C(CNC2=O)[C@H]2C[C@H]2[C@H](C)C[C@H]1OC(C)=O`, the Activity (HL-60) was “inactive”, the Activity (A549) was “inactive” and the inhibition [1] was 47%.

For `CC(=O)O[C@@H]1C[C@@H](C)[C@@H]2C[C@@H]2C2=C(C(=O)NC2)[C@@H]1[C@H](C)CCC=C(C)C`, the Activity (HL-60) was “inactive”, the Activity (A549) was “inactive” and the inhibition [1] was 52%. The IC50 [2] was 19 µM.

For `CC(C)=CCC[C@@H](C)[C@H]1C2=C(C(=O)OC2)[C@H]2C[C@H]2[C@H](C)C[C@H]1O`, the Activity (HL-60) was “inactive”, the Activity (A549) was “inactive” and the inhibition [1] was 86%. It also gave an IC50 [2] of 7.3 µM.

`CC(=O)O[C@@H]1C[C@@H](C)[C@@H]2C[C@@H]2C2=C(CNC2=O)[C@@H]1[C@H](C)CCC=C(C)C` was tested, and the Activity (HL-60) was “inactive”, the Activity (A549) was “inactive” and the inhibition [1] was 73%. The IC50 [2] was 13 µM.

With `CC(C)=CCC[C@@H](C)[C@H]1C2=C(C(=O)NC2)[C@H]2C[C@H]2[C@H](C)C[C@H]1O` the Activity (HL-60) was “inactive”, the Activity (A549) was “inactive” and the inhibition [1] was 40%.

`CCO[C@@H]1C/C=C(\C)CC[C@@H]([C@H](C)CCC=C(C)C)C2=C1C(=O)N[C@H]2O` was tested, and the Activity (HL-60) was “inactive”, the Activity (A549) was “inactive” and the inhibition [1] was 81%. The IC50 [2] was 9.5 µM.
